Laboratory results: US11135163B2, “Peptide hydrogel properties and its applications” (Kansas State University Research Foundation, priority 2014, dated 2021)

Experiment: Hydrogelation and dynamic rheology of h9e in MEM
Type: physicochemical
Conditions: for stable storage modulus: 37° C.
Experimental: Lyophilized peptide was added to 100 mM sodium bicarbonate and completely dissolved by magnetic stirring for 3 hours with a final peptide concentration of 10 mM. For hydrogelation, peptide solution was added into MEM with 10% FBS and the mixture was hand-shaken for about 10 seconds. The peptide hydrogel formed within 15 minutes at room temperature with final peptide concentrations of 1, 2, and 3 mM. The storage and loss moduli (G′ and G″, respectively) of h9e hydrogels were determined on a C-VOR 150 rheometer system (Malvern instruments, Malvern, Worcestershire WR141XZ, United Kingdom) with a 20-mm diameter parallel plate geometry and 500 μm gap size. To mimic cell physiological conditions, all rheological tests were performed at 37° C. unless otherwise specified. The peptide and MEM mixture was placed on the measuring system immediately after mixing for a gel-forming rate test. Single frequency (1 Hz) and steady shear strain (1%) were selected for a 1 hour test. To determine the hydrogel reassembly capability, the peptide and MEM mixture was incubated at room temperature overnight for hydrogelation, then transferred to a lower measuring plate for a 10 minute, single-frequency test (1 Hz, 1% strain) for stabilization. The hydrogel was broken using 1 Hz frequency and 500% shear strain for 1 minute. Resetting the instrument parameters took 1 minute, and the hydrogel moduli during the reassembly period were measured under 1 Hz frequency and 1% shear strain for 1 hour. The amplitude sweep test (strain from 1 to 500%, 1 Hz frequency) was conducted multiple times to determine hydrogel reassembly capability after each time it was destroyed. Four testing cycles were applied in this measurement and the hydrogel recovery time between every two cycles was 1, 5, and 10 minutes. Furthermore, to test the response to different environmental temperatures, the peptide hydrogel was measured under a temperature profile test with steady oscillatory frequency (1 Hz) and strain (1%). The temperature was adjusted from 4° C. to 50° C. for two testing cycles. For each cycle, the instrument's heating or cooling processes took 5 minutes, then another 5 minutes to arrive at the setting temperature (4° C. or 50° C.). To determine the G′ and G″ of hydrogel during cell isolation, 3 mM peptide hydrogel was diluted 15 times with MEM. After thorough mixing, the diluted solution was tested under 1 Hz frequency and 1% shear strain at 4° C. for 1 hour.

stable storage modulus (1 mM h9e in MEM): around 100 Pa
gel strength recovered (1 mM hydrogel, waiting time 1 min): about 73%
gel strength recovered (1 mM, after three shear-thinning cycles and 10 min waiting): 83%
stable storage modulus (2 mM h9e in MEM): ~400 Pa
gel strength recovered (2 mM hydrogel, waiting time 1 min): ~76%
gel strength recovered (2 mM, after three shear-thinning cycles and 10 min waiting): 84%
stable storage modulus (3 mM h9e in MEM): ~700 Pa
gel strength recovered (3 mM hydrogel, waiting time 1 min): ~88%
gel strength recovered (3 mM, after three shear-thinning cycles and 10 min waiting): 100%
time to reach self-supporting strength (close or above 100 Pa) (1, 2 and 3 mM h9e in MEM): ≤ 15 min
G′ after shear-thinning (1-3 mM hydrogels, 500% strain for 1 minute): lower than 0.2 Pa
time to self-supporting hydrogel matrix (h9e solution added into MEM with 10% serum): ≤ 1 min
G′ at 50° C. relative to 4° C. (temperature profile test, 1-3 mM hydrogels): 2-3 times
Substance: H-FLIVIGSIIGPGGDGPGGD-NH2 [h9e, FLIVIGSIIGPGGDGPGGD]
